Experimental data published in publication PMC11971306, “Enzymatic Birch reduction via hydrogen atom transfer at [4Fe-4S]-OH2 and [8Fe-9S] clusters” (Nature Communications, 2025).

How the values were obtained:
BzdNO [1] = target: T1, BzdNO (Azoarcus sp. CIB, UniProt Z9PSW1D6O9); assay: X-ray crystallography, co-crystal; type: binding; conditions: 1.4 Å; 5 mM compound, pH 7.5, anaerobic; non-covalent; active site channel of BzdO in front of [4Fe-4S]-OH2 cluster
T1 construct: BzdN + BzdO heterodimer (catalytic dimer of class I benzoyl-CoA reductase, BZD type) without BzdPQ; C-terminal Strep-tag on BzdO; anaerobic purification; about 95 kDa theoretical, 107 kDa by SEC; BzdN to residue 376, BzdO to residue 442 (domain borders); with Benzoyl-CoA reductase subunit BzdN
T1 sequence (Z9PSW1D6O9 1-437): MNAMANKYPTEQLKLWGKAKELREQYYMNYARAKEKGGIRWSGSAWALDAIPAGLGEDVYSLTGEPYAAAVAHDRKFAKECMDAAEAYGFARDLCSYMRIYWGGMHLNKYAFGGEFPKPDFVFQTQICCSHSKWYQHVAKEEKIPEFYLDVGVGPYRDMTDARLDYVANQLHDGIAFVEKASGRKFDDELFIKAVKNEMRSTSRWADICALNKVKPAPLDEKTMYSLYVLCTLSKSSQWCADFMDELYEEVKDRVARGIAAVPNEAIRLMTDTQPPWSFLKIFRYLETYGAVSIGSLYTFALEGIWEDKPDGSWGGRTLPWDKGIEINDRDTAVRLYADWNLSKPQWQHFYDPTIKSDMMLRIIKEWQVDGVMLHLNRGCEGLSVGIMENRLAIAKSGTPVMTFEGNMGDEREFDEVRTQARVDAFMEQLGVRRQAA
T1 sequence (Z9U3P4NCS5 1-379 partner): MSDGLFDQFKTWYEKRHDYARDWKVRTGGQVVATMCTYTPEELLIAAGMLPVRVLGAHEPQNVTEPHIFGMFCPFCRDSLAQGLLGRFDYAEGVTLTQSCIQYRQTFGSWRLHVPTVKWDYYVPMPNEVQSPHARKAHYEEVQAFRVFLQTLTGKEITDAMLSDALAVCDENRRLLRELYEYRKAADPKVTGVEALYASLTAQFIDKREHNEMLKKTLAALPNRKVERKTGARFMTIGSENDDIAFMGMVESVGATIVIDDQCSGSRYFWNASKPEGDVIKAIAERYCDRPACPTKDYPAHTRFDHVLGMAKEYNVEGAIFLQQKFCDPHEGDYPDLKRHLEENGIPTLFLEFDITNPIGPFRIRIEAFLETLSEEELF

BzdNO [2] = target: T1, BzdNO; assay: rearomatization of dienoyl-CoA to benzoyl-CoA, UPLC; type: biochemical; conditions: artificial electron acceptor 0.5 mM; 0.2 mM dienoyl-CoA, pH 8.8, 30 °C, anaerobic
BzdNO [3] = target: T1, BzdNO; assay: X-ray crystallography, co-crystal; also turnover in reverse reaction; type: binding; conditions: 5 mM compound, pH 7.5, anaerobic; non-covalent; same site as benzoyl-CoA; substrate of the reverse, viologen-dependent rearomatization
BzdNO [4] = target: T1, BzdNO; assay: X-ray crystallography, no ligand added; type: binding; conditions: weakly occupied, co-purified; partially CoA-free state

In the case of `CC(C)(COP(=O)(O)OP(=O)(O)OC[C@H]1O[C@@H](n2cnc3c(N)ncnc32)[C@H](O)[C@@H]1OP(=O)(O)O)[C@@H](O)C(=O)NCCC(=O)NCCSC(=O)c1ccccc1` [benzoyl-CoA], the “X-ray crystallography, co-crystal” value (BzdNO [1]) is reported as “determined in a BzCoA bound (pdb 8SO2), dienoyl-CoA bound (pdb 8S1T)”.

With `C[n+]1ccc(-c2cc[n+](C)cc2)cc1` [methyl viologen] the “rearomatization of dienoyl-CoA to benzoyl-CoA, UPLC” value (BzdNO [2]) was “methyl viologen-dependent rearomatization of dienoyl-CoA to BzCoA”.

For `CC(C)(COP(=O)(O)OP(=O)(O)OC[C@H]1O[C@@H](n2cnc3c(N)ncnc32)[C@H](O)[C@@H]1OP(=O)(O)O)[C@@H](O)C(=O)NCCC(=O)NCCSC(=O)C1=CCCC=C1` [dienoyl-CoA, cyclohexa-1,5-diene-1-carbonyl-CoA], the “X-ray crystallography, co-crystal; also turnover in reverse reaction” value (BzdNO [3]) was “BzdNO in complex with the product dienoyl-CoA reveals the identical binding mode as the substrate”.

In the case of `CC(C)(COP(=O)(O)OP(=O)(O)OC[C@H]1O[C@@H](n2cnc3c(N)ncnc32)[C@H](O)[C@@H]1OP(=O)(O)O)[C@@H](O)C(=O)NCCC(=O)NCCS` [CoA], the “X-ray crystallography, no ligand added” value (BzdNO [4]) is reported as “appears to contain besides several solvent molecules a weakly occupied CoA ligand”.
